This is an account of results in patent US20240315993A1, “ANTIPARASITIC COMPOUNDS” (Intervet Inc., priority 2021, published 2024).

By inhibition is commonly meant the change of the read-out against control, counted positive when it falls. Usually EC50 stands for the concentration giving half of the maximal effect.

Test [1] concerns Copepodids (juvenile sea lice stage of Lepeophtheirus salmonis). Kind of test: Juvenile sea lice contact assay. To be noted: Lepeophtheirus salmonis, ~24 h, read-out: Sea lice inhibition (% of dead+damaged copepodids). On the procedure: Copepodids (juvenile sea lice stage of Lepeophtheirus salmonis) were exposed to seawater spiked with declining concentrations of a test compound (dissolved in a DMSO sea-water mixture). Sea lice inhibition (% of dead+damaged copepodids) was assessed after approximately 24 hours of continuous exposure. The vitality of used parasites was confirmed in a negative (solvent) control group.

The subject of test [2] is Mobile stages of sea lice (pre-adults, adults of Lepeophtheirus salmonis). Kind of test: Adult sea lice contact assay. To be noted: pre-adults/adults, assessed after ~1 and 24 h, read-out: EC50 (sea lice inhibition, dead+damaged). The procedure:
Mobile stages of sea lice (i.e., pre-adults, adults of Lepeophtheirus salmonis) were exposed to seawater spiked with declining concentrations of a test compound (dissolved in a PEG sea-water mixture). Sea lice inhibition (% of dead+damaged sea lice) was assessed after approximately 1 and 24 hours of continuous exposure in comparison to a negative (solvent) control group.

Test [3] deals with juvenile soft ticks (Ornithodoros moubata). Kind of test: Guinea pig - efficacy against argaside tick. It counts as in vivo. To be noted: for duration of efficacy, subcutaneous compared with oral administration: 5 mg/kg, ticks and bed bugs. On the procedure: (§1) Guinea pigs were locally co-infested (using an infestation device on a shaved skin area) with juvenile soft ticks (Ornithodoros moubata) and bed bugs (Cimex lectularius) before the treatment day (Day 0) to provide a baseline-negative control value. Guinea pigs were treated orally (by gavage) or subcutaneously at a dose of 5 mg/kg bodyweight of a test compound in a formulation of 10% DMF/Emulsifier+90% Aqua ad injectabilia.
(§2) Repeated local infestations with both parasites were performed at different time points after treatment. Within approximately 45 min after each infestation ten engorged ticks and ten engorged bed bugs were • collected and the percentage of dead and damaged parasites per species were • assessed approximately 24 hours following collection. The efficacy was • calculated as % of inhibition ‘killed+damaged’ parasites in a treated group in comparison to the baseline-negative control (using a modified Schneider Orelli's formula).
(§3) Results: Activity of the test compounds at different evaluation time-points (≥80% inhibition were found active): […]

Test [4] deals with bed bugs (Cimex lectularius). Kind of test: Guinea pig - efficacy against bed bug. It counts as in vivo. On the procedure:
as §1, §2, §3

The test system of the next test is Rhipicephalus microplus. Put plainly: Cattle - efficacy against one-host tick. It counts as in vivo. To be noted: 1 mg/kg topical (Compound 4: spray solution; others: DMA 92%/DEET 8% pour-on). On the procedure: Cattle were infested (whole body) with up to 3000 Rhipicephalus microplus larvae two or three times per week before and after the treatment day (Day 0). Cattle of treatment groups were treated subcutaneously or topically (spray or pour-on) at a dose of 1 mg/kg bodyweight of a test compound. As subcutaneous formulation either 2-pyrrolidon 50%/Tween 80 50% or NMP 60%/PEG300 40% was used. As topical formulation either a spray solution (DMF/Emulsifier 2%/tap water 98%) (Compound 4) or a DMA 92%/DEET 8% pour-on solution (all other compounds) or a pour-on solution containing Imwitor 988 (20%)+Miglyol 840 (QS) (Compound 453 and Compound 466) or a pour-on solution containing Miglyol 840 (QS) (Compound 453) was used. Cattle of the negative control group received only the formulation excipients of the respective administration route.
Fully engorged female ticks dropping from cattle were collected daily after treatment and counted in treatment and control groups. Efficacy was expressed using the standard ADEQ analysis method (ADEQ calculation in accordance with WAAVP guidelines for evaluating the efficacy of acaricides against ticks on ruminants; Veterinary parasitology 136 (2006) 29-43). Compounds with efficacy ≥80 percent were found active/effective. Onset of efficacy means the first Day with efficacy ≥80 percent. Duration of efficacy means the last Day with efficacy ≥80 percent.

For the next test, the system named is Dermacenter variabilis. Put plainly: Cattle - efficacy against multi-host ticks (Dermacenter variabilis). It counts as in vivo. On the procedure:
(§4) Cattle were treated subcutaneously or topically (pour-on) at a dose of 5 mg/kg bodyweight of a test compound (Day 0). As subcutaneous formulation NMP 60%/PEG300 40% was used, and as pour-on formulation DMA 92%/DEET 8% was used. Cattle of the negative control group received only the formulation excipients of both formulations (SC, pour-on).
(§5) Cattle were locally infested with 30 to 40 unfed adult ticks each of Rhipicephalus appendiculatus and Dermacenter variabilis (for both species sex ratio 1:1), by placing the ticks in an ear sleeve (R. appendiculatus) or a stockinet patch attached to the body side (D. variabilis) once before treatment, and at different time points after treatment. Free (i.e., non-attached ticks) were removed from ear sleeves/stockinet patches two days after each infestation and were excluded from the efficacy calculation.
(§6) Compounds with efficacy ≥80 percent were found active.

Test [5] deals with Rhipicephalus appendiculatus. Put plainly: Cattle - efficacy against multi-host ticks (Rhipicephalus appendiculatus). It counts as in vivo. The procedure: as §4, §5, §6
Setting [6] is: 5 mg/kg subcutaneous, after 7 days.
Setting [7] is: 5 mg/kg subcutaneous, after 10 days.
Where [8] appears, read: 5 mg/kg subcutaneous, therapeutic, Day 2.
Where [9] appears, read: 5 mg/kg topical pour-on, re-infested after 7 days.
Where [10] appears, read: 5 mg/kg topical pour-on, re-infested after 28 days.
The mark [11] stands for this setting: 5 mg/kg topical pour-on, therapeutic, Day 2.
Where [12] appears, read: 5 mg/kg, both administration routes (topical, subcutaneous).

As for `O=C(Nc1ccc(F)cc1F)c1cc(NC(=O)[C@H]2[C@H](c3cc(Cl)cc(Cl)c3)C2(Cl)Cl)ccc1F` [Compound 447], the inhibition at 0.01 µM in test [1] (10 nM in seawater) turned out to be 100%. Moreover, the EC50 in test [2] was not above 10 nM. Further, the “activity against tick nymphs (≥80% inhibition, killed+damaged)” value in test [3] (5 mg/kg oral, Day 0) was “immediate activity”; in test [3] (5 mg/kg oral, after 7 days), “activity”; in test [3] (5 mg/kg subcutaneous, Day 0), “immediate activity”; in test [3] (setting [6]), “activity”; in test [3] (setting [7]), “activity”; in test [3] (5 mg/kg subcutaneous, after 14 days), “activity”. Further, the “activity against tick nymphs (≥80% inhibition, killed+damaged)” value in test [3] (5 mg/kg subcutaneous, after 17 days) is reported as “activity”. Besides, the “duration of efficacy, subcutaneous compared with oral administration” value in test [3] was “longer duration of efficacy”. The “activity against bed bugs (≥80% inhibition, killed+damaged)” value in test [4] (5 mg/kg oral, Day 0) is “immediate activity”; in test [4] (5 mg/kg oral, after 7 days) it was “activity”; in test [4] (5 mg/kg subcutaneous, Day 0) it was “immediate activity”; in test [4] (setting [6]), “activity”; in test [4] (setting [7]), “activity”. For the same molecule, in the test with Rhipicephalus microplus, the “duration of efficacy (last Day with efficacy ≥80 percent)” value was not below 57 days. The “onset of efficacy (first Day with efficacy ≥80 percent)” value in the test on Rhipicephalus microplus is 4 days. The “efficacy ≥80 percent against Dermacenter variabilis” value was “prophylactic efficacy” in the test with Dermacenter variabilis (5 mg/kg subcutaneous, re-infested after 7 days); “prophylactic efficacy” in the test with Dermacenter variabilis (5 mg/kg subcutaneous, re-infested after 28 days); “therapeutic efficacy” in the test on Dermacenter variabilis (setting [8]); “prophylactic efficacy” with Dermacenter variabilis (setting [9]); “prophylactic efficacy” in the test on Dermacenter variabilis (setting [10]); “therapeutic efficacy” with Dermacenter variabilis (setting [11]). The “effective in treating existing tick infestations” value (in the test on Dermacenter variabilis (setting [12]); in test [5] (setting [12])) was 100% throughout. Also, the “efficacy ≥80 percent against Rhipicephalus appendiculatus” value was “prophylactic efficacy” in test [5] (5 mg/kg subcutaneous, re-infested after 21 days); “therapeutic efficacy” in test [5] (setting [8]); “prophylactic efficacy” in test [5] (setting [9]); “prophylactic efficacy” in test [5] (5 mg/kg topical pour-on, re-infested after 14 days); “prophylactic efficacy” in test [5] (setting [10]); “prophylactic efficacy” in test [5] (5 mg/kg topical pour-on, re-infested after 35 days). For the same molecule, in test [5] (setting [11]), the “efficacy ≥80 percent against Rhipicephalus appendiculatus” value was “therapeutic efficacy”.
With `Cc1cc(NC(=O)c2cc(NC(=O)[C@H]3[C@H](c4cc(Cl)cc(Cl)c4)C3(Cl)Cl)ccc2Cl)ncc1F` [Compound 454], the inhibition at 0.1 µM in test [1] (100 nM in seawater) came to 100%. In addition, in test [2], the EC50 is not above 10 nM. Moreover, the “activity against tick nymphs (≥80% inhibition, killed+damaged)” value is recorded as “immediate activity” in test [3] (5 mg/kg oral, Day 0); “immediate activity” in test [3] (5 mg/kg subcutaneous, Day 0); “activity” in test [3] (setting [6]); “activity” in test [3] (setting [7]). Moreover, in test [3], the “duration of efficacy, subcutaneous compared with oral administration” value is reported as “longer duration of efficacy”. Moreover, the “activity against bed bugs (≥80% inhibition, killed+damaged)” value is “immediate activity” in test [4] (5 mg/kg oral, Day 0) and “immediate activity” in test [4] (5 mg/kg subcutaneous, Day 0).
